From patent publication US20240237641A1, “COMPOSITION COMPRISING GRAPHENE FOR THE TREATMENT OF TEXTILE ARTICLES AND TEXTILE ARTICLES TREATED” (DIRECTA PLUS S.P.A., priority 2021, published 2024) come the findings set out here.

Data set [1] concerns Sars-CoV-2. The data set can be described thus: Test of inhibition of Sars-CoV-2 viral infection of Vero E6 cells. Format: cell-based. To be noted: Severe acute respiratory syndrome coronavirus 2, Vero C1008, read-out: viable cells. The protocol:
The substances were evaluated in the concentration ranges from […]. With the same concentration (0.015 mg/mL) maximum efficacy was obtained with Curcumin (94% viable cells), followed by Emodin (89% viable cells), α-Hederine (71% viable cells) and Thymoquinone (73% viable cells).

The subject of data set [2] is Vero E6 cells. To be noted: substances solubilized in DMSO, luminescence kit for quantification of viable cells.
Text: The substances were solubilized in dimethyl sulfoxide (DMSO) and renal epithelial cells (Vero E6 ATCC® CRL-1586™) were used for the test. The experimental procedure used was divided into 3 steps: • 1) Evaluation of cytotoxicity (amount of dead cells) of DMSO on Vero E6 cells compared to the negative control, i.e., compared to Vero E6 cells not treated with DMSO; • 2) Evaluation of cytotoxicity of the single substances dissolved in DMSO on Vero E6 cells compared to the negative control, i.e., compared to Vero E6 cells not treated with DMSO; • 3) Evaluation of inhibition of the infection of Vero E6 cells by Sars-Cov-2 (around 10^5 viral particles/mL) compared to the positive control, i.e., Vero E6 cells infected but not treated with any phytotherapeutic substance.
The substances were administered to Vero E6 cells at different concentrations gradually decreasing towards lower concentrations. Cytotoxicity was evaluated using a luminescence kit for the quantification of viable cells.

On to `COc1cc(/C=C/C(=O)/C=C(O)/C=C/c2ccc(O)c(OC)c2)ccc1O` [curcumin], for which the viability at 15 µg/mL in data set [1] was 94%. Besides, the “concentrations tolerated by the cells” value in data set [2] was 15000 ng/mL.
On the same counts, the results for `Cc1cc(O)c2c(c1)C(=O)c1cc(O)cc(O)c1C2=O` [emodin] are 89% and 60000 ng/mL.
In the same order, the values of `CC1=CC(=O)C(C(C)C)=CC1=O` [thymoquinone] are 73% and 7500 ng/mL.
In the same order, the values of `C[C@@H]1O[C@@H](O[C@H]2[C@H](O[C@H]3CC[C@@]4(C)[C@@H](CC[C@]5(C)[C@@H]4CC=C4[C@@H]6CC(C)(C)CC[C@]6(C(=O)O)CC[C@]45C)[C@]3(C)CO)OC[C@@H](O)[C@@H]2O)[C@H](O)[C@H](O)[C@H]1O` [α-hederine] are 71% and 7500 ng/mL.
